Data published in US10000791B2, “Measurement method for human pancreatic lipase activity” (ASAHI KASEI PHARMA CORPORATION, priority 2013, dated 2018).

Target: T1, human pancreatic lipase (Homo sapiens, UniProt P16233)
T1 construct: As a sample, pooled serum or a control sample (a control containing a pancreatic lipase) was used; from tissue; host or cells: human serum (pooled serum, normal samples, heparin-administered samples) and control sera
T1 sequence (P16233 17-465): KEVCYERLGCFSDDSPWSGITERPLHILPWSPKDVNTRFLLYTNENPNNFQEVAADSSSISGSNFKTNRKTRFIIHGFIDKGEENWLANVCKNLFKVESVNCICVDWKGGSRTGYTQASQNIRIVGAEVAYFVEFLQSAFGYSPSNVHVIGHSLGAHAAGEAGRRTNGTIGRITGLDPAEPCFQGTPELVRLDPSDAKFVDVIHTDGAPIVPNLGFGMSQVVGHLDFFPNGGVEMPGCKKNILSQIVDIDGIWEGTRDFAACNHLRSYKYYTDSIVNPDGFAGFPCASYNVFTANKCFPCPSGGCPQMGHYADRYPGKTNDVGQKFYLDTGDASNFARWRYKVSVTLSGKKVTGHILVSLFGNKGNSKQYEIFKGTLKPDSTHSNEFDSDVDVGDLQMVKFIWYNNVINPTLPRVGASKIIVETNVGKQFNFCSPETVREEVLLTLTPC
Assay: lipase activity measured in control, normal and heparin-administered samples with each reagent (1,2-dioleoyl glycerol, UV method; Liquitech Lipase Color II for verification)
Type: biochemical
Details: Recombinant pancreatic lp-containing serum
Experimental: A mixture of the substrate stock solution and the R-1 in a proportion of 1:2 was used as a first reagent. The R-2 was directly used as a second reagent. As a sample, pooled serum or a control sample (a control containing a pancreatic lipase) was used. A proportion in amount among the sample, the first reagent and the second reagent was set as sample:first reagent:second reagent of 0.01 ml:0.18 ml:0.06 ml. The sample was added to the first reagent, the resultant mixture was heated at 37° C. for 5 minutes, the second reagent was added thereto, and a change rate of an absorbance at 340 nm based on reduced NADP was obtained at 37° C. from 3 minutes after the addition of the second reagent to 4 minutes after the addition, and then, the lipase activity was calculated by using a molecular extinction coefficient of 6300 L/mol·cm of the reduced NADP. Besides, as a sample blank, saline was used instead of a sample, an absorbance was measured by using the reagent for sample blank obtained by removing MGLPII from the second reagent, and a difference between the thus measured two values was defined as an enzyme activity value. For the measurement, Hitachi automatic analyzer Model H7170 or H7080 was used.
Similarly to Example 1, a mixture of the substrate stock solution and the R-1 in a proportion of 1:2 was used as a first reagent. Except for this, the measurement was performed in the same manner as in Example 1.
A commercially available reagent for a resorufin colorimetric method, “Liquitech Lipase Color II” manufactured by Roche Diagnostics using 1,2-O-dilauryl-rac-glycerol-3-glutaric acid-(6-methylresorufin)ester (DGGR), which is regarded not to be influenced by a non-pancreatic lipase, such as a lipoprotein lipase or a hepatic lipase, appearing in blood due to administration of heparin, was used for verifying the effect of the present example. “Liquitech Lipase Color II” was used in accordance with the package insert, and a special calibrator was used for calculating the enzyme activity. […] The concentration of each bile acid used in the present example was set to be the same as that in the comparative example.
As samples, a control, non-heparin-administered samples (normal samples), and heparin-administered samples were used.
The compositions of the reagents were the same as those of Example 2. As a comparative example, NaDCA (in a concentration of 40 mmol/L in the R-1) was used as the bile acid, and the reaction solution was adjusted to pH 8.15 (by the Bicine buffer) for measuring a heparin-administered sample.
It is noted that CRM-001b containing a human pancreatic recombinant lipase dissolved not in distilled water but in a pooled serum was used as the calibrator to calculate the lipase activity.
As a bile acid of the present example and a reference example, NaTDCA was selected, and the pH dependence with the pH of a reaction solution changed in a range of 6.2 to 7.6 was examined. It is noted that a case of pH 7.6 was used as the reference example. An MES buffer was used for adjusting pH to 6.2 and 6.4, and the BES buffer was used for adjusting the other pHs. As samples, (six) control samples (controls each containing a pancreatic lipase) and (nine) heparin-administered samples were used. As a comparative example, NaDCA (in a concentration of 40 mmol/L in the R-1) was used as the bile acid, and a reaction solution having pH 8.15 (the Bicine buffer) was used. Besides, “Liquitech Lipase Color II” manufactured by Roche Diagnostics was used for verifying the effect of the present example.

| Compound | lipase activity (Table 5) (pH 7.0) [U/L] | lipase activity (Table 5) (pH 7.95) [U/L] | lipase activity (Table 3) (pH 6.2) [U/L] | lipase activity (Table 3) (pH 6.4) [U/L] | lipase activity (Table 3) (pH 6.6) [U/L] | lipase activity (Table 3) (pH 6.9) [U/L] | lipase activity (Table 3) (pH 7.2) [U/L] | lipase activity (Table 3) (pH 7.4) [U/L] | lipase activity (Table 3) (pH 7.6) [U/L] |
| --- | --- | --- | --- | --- | --- | --- | --- | --- | --- |
| C[C@H](CCC(=O)NCC(=O)[O-])[C@H]1CC[C@H]2[C@@H]3[C@H](O)C[C@@H]4C[C@H](O)CC[C@]4(C)[C@H]3CC[C@]12C.[Na+] [NaGCDCA, sodium glycochenodeoxycholate] | 166.1 | 72.4 | – | – | – | – | – | – | – |
| C[C@H](CCC(=O)NCCS(=O)(=O)[O-])[C@H]1CC[C@H]2[C@@H]3CC[C@@H]4C[C@H](O)CC[C@]4(C)[C@H]3C[C@H](O)[C@]12C.[Na+] [NaTDCA, sodium taurodeoxycholate] | – | – | 180.8 | 184.7 | 211.9 | 233.1 | 229.8 | 217.3 | 168.8 |
